{"source": "paper PMC7076352", "about": "(Pharmaceutics, 2020)", "key": {"in vivo": {"experiment": "in vivo", "parameters": "species or system Sprague-Dawley (SD) rats", "settings": "Sprague-Dawley, plasma, rat", "experimental": "At each time, 0.5 mL of blood was collected in the heparin sodium tubes. Plasma was separated by centrifugation at 4000 rpm for 10 min and stored below −80 °C until bioanalysis. Oasis PRiME HLB SPE cartridges (1 cc/30 mg, Waters, Milford, MA, USA) were used to process the plasma samples (Supplementary Materials).\nThe generic layout of instrumentation setup of the LVDI-UHPLC-MS/MS was conducted on a Shimadzu UHPLC system consisting of two LC-20ADXR pumps, a DGU-20A3R degasser, and a CBM-20A controller (Kyoto, Japan) with a SCIEX 4500 QTRAP mass spectrometer mounted with an electron spray ionization (ESI) interface as well as an electronic 6-port/2-channel valve (Foster City, CA, USA). Analyst software package (version 1.6.2, SCIEX) was implemented to control and synchronize the entire system, and also for data acquisition and processing. A single analytical run was fragmented into two phases, namely, loading and elution phases, by switching the electronic valve (Figure 2). At the loading phase, the valve was maintained at A-channel. The specimen aliquot of large volume delivered from the auto-sampler was captured onto a guard column. Meanwhile, the pumps were responsible for delivering the mobile phase at a high flow rate, aiming to dilute the sample solvent, thus facilitating the candidate constituents to concentrate on the pre-guard column. Then, the valve was automatically switched to the B-channel to trigger the elution phase. The trapped components were flushed from the pre-guard column into an analytical column, and underwent multiple reaction monitoring (MRM) analysis on the optimized LC gradients. The detailed information of LVDI-UHPLC-MS/MS analysis for pharmacokinetic and cocktail studies is shown in the Supplementary Materials section."}, "CYP2C19": {"tested_on": "CYP2C19", "experiment": "In vitro cocktail CYP450 activity assay in rat liver microsomes, CYP2C19 (omeprazole probe)", "experimental": "(§1) (OHBUP-[D6]) and 5 nM 4′-hydroxydiclofenac-[^13C6] (OHDIC-[^13C6]) as internal standards (ISs). […]\n(§2) standard addition experiments. Each group included four concentration levels. For the PK […]\n(§3) The probe compounds, viz. […]\n(§4) chosen after incubating all the recruited substrates. In order to assure the linear relationship […]\n(§5) The incubation system was also optimized in terms of substrate concentrations. The substrates concentrations of […]"}, "CYP2B6": {"tested_on": "CYP2B6", "experiment": "In vitro cocktail CYP450 activity assay in rat liver microsomes, CYP2B6 (bupropion probe)", "experimental": "as §1, §2, §3, §4, §5"}, "CYP2C9": {"tested_on": "CYP2C9", "experiment": "In vitro cocktail CYP450 activity assay in rat liver microsomes, CYP2C9 (tolbutamide probe)", "experimental": "as §1, §2, §3, §4, §5"}, "CYP2D6": {"tested_on": "CYP2D6", "experiment": "in vitro", "settings": "Sprague-Dawley, rat", "experimental": "as §1, §2, §3, §4, §5"}, "CYP3A4": {"tested_on": "CYP3A4", "experiment": "in vitro", "settings": "Sprague-Dawley, rat, pH 7.4", "experimental": "as §1, §2, §3, §4, §5"}, "CYP1A2": {"target": "T1, CYP1A2 (Rattus norvegicus, UniProt P04799)", "T1 sequence (P04799 1-513)": "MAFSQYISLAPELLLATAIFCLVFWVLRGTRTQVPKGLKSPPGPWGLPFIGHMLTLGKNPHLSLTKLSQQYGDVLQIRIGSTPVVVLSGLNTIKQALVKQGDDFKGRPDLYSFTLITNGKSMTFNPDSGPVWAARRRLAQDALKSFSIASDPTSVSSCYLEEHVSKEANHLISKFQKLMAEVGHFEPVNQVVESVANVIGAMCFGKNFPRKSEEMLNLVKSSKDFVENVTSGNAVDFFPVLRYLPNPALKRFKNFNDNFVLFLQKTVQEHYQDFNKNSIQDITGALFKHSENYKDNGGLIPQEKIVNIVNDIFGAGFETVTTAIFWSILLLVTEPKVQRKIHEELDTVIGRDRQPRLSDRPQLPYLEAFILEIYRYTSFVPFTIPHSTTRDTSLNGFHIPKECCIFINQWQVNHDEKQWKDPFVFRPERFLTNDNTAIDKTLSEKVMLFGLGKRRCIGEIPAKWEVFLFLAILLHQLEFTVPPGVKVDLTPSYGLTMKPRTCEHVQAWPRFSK", "experiment": "In vitro cocktail CYP450 activity assay in rat liver microsomes, CYP1A2 (phenacetin probe)", "experimental": "as §1, §2, §3, §4, §5"}, "CYP2E1 [1]": {"target": "T2, CYP2E1 (Rattus norvegicus, UniProt P05182)", "T2 sequence (P05182 whole entry)": "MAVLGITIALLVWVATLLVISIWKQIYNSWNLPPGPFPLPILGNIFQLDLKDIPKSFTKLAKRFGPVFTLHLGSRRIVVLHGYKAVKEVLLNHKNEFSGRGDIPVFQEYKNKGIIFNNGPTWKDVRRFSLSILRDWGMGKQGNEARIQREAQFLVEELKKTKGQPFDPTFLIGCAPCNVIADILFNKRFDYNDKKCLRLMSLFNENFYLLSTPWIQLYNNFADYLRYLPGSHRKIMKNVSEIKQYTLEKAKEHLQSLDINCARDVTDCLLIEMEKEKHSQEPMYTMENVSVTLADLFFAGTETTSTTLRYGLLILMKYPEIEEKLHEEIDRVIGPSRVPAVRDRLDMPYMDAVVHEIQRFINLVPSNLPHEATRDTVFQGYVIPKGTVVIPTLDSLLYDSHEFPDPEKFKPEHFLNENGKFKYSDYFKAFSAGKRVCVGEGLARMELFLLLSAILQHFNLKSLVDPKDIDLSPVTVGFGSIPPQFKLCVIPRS", "settings": "IC50 CYP2E1, single components; RLM 0.2 mg/mL, 15 min, triplicate, mean ± SD"}, "CYP2E1 [2]": {"target": "T2, CYP2E1", "settings": "at the Cmax level in rat plasma, calculated from the dose–response curve"}, "[3]": {"settings": "at the Cmax level in rat plasma, calculated from the dose–response curve"}}, "data": [{"molecule": "CC(C)=CCC[C@](C)(O[C@@H]1O[C@H](CO[C@@H]2O[C@H](CO)[C@@H](O)[C@H](O)[C@H]2O)[C@@H](O)[C@H](O)[C@H]1O)[C@H]1CC[C@]2(C)[C@@H]1[C@H](O)C[C@@H]1[C@@]3(C)CC[C@H](O[C@@H]4O[C@H](CO)[C@@H](O)[C@H](O)[C@H]4O[C@@H]4O[C@H](CO)[C@@H](O)[C@H](O)[C@H]4O)C(C)(C)[C@@H]3CC[C@]12C", "note": "[GRb1, ginsenoside Rb1]", "values": [{"measurement": "concentration at […]", "setting": "in vivo; 0.083 h after oral CNP", "value": "18.7 ± 4.36", "unit": "ng/mL"}, {"measurement": "concentration at 0.25 h", "setting": "in vivo; 0.25 h after oral CNP", "value": "22.5 ± 4.27", "unit": "ng/mL"}, {"measurement": "concentration at 0.5 h", "setting": "in vivo; 0.5 h after oral CNP", "value": "36.1 ± 7.79", "unit": "ng/mL"}, {"measurement": "concentration at 1 h", "setting": "in vivo; 1 h after oral CNP", "value": "45.5 ± 3.29", "unit": "ng/mL"}, {"measurement": "concentration at 1.5 h", "setting": "in vivo; 1.5 h after oral CNP", "value": "54.6 ± 10.9", "unit": "ng/mL"}, {"measurement": "concentration at 2 h", "setting": "in vivo; 2 h after oral CNP", "value": "60.5 ± 12", "unit": "ng/mL"}, {"measurement": "concentration at 3 h", "setting": "in vivo; 3 h after oral CNP", "value": "69.5 ± 9.4", "unit": "ng/mL"}, {"measurement": "concentration at 4 h", "setting": "in vivo; 4 h after oral CNP", "value": "83.9 ± 31.8", "unit": "ng/mL"}, {"measurement": "concentration at 6 h", "setting": "in vivo; 6 h after oral CNP", "value": "113 ± 74.6", "unit": "ng/mL"}, {"measurement": "concentration at 8 h", "setting": "in vivo; 8 h after oral CNP", "value": "80 ± 20.6", "unit": "ng/mL"}, {"measurement": "concentration at 12 h", "setting": "in vivo; 12 h after oral CNP", "value": "63.9 ± 28.4", "unit": "ng/mL"}, {"measurement": "concentration at 24 h", "setting": "in vivo; 24 h after oral CNP", "value": "22.4 ± 4.86", "unit": "ng/mL"}, {"measurement": "concentration at 48 h", "setting": "in vivo; 48 h after oral CNP", "value": "19.4 ± 3.81", "unit": "ng/mL"}, {"measurement": "concentration at 72 h", "setting": "in vivo; 72 h after oral CNP", "value": "9.62 ± 1.02", "unit": "ng/mL"}, {"measurement": "concentration at 96 h", "setting": "in vivo; 96 h after oral CNP", "value": "6.43 ± 2.45", "unit": "ng/mL"}, {"measurement": "AUC(0-inf)", "setting": "in vivo; po, 60 mg/kg", "value": "2810 ± 618", "unit": "ng·h/mL"}, {"measurement": "AUC(0-t)", "setting": "in vivo; po, 60 mg/kg", "value": "2320 ± 683", "unit": "ng·h/mL"}, {"measurement": "Cmax", "setting": "in vivo; po, 60 mg/kg", "value": "113 ± 41.8", "unit": "ng/mL"}, {"measurement": "Tmax", "setting": "in vivo; po, 60 mg/kg", "value": "5.5 ± 1.8", "unit": "h"}, {"measurement": "half-life", "setting": "in vivo; po, 60 mg/kg", "value": "36.9 ± 9.65", "unit": "h"}, {"measurement": "concentration at 0.25 h", "setting": "in vivo; po, 60 mg·kg^−1", "value": "27.9 ± 4.54", "unit": "ng/mL"}, {"measurement": "concentration at 0.5 h", "setting": "in vivo; po, 60 mg·kg^−1", "value": "38.1 ± 3.67", "unit": "ng/mL"}, {"measurement": "concentration at 1 h", "setting": "in vivo; po, 60 mg·kg^−1", "value": "53.5 ± 12", "unit": "ng/mL"}, {"measurement": "concentration at 1.5 h", "setting": "in vivo; po, 60 mg·kg^−1", "value": "58.4 ± 12.4", "unit": "ng/mL"}, {"measurement": "concentration at 2 h", "setting": "in vivo; po, 60 mg·kg^−1", "value": "61.9 ± 19.5", "unit": "ng/mL"}, {"measurement": "concentration at 3 h", "setting": "in vivo; po, 60 mg·kg^−1", "value": "78.1 ± 12.8", "unit": "ng/mL"}, {"measurement": "concentration at 4 h", "setting": "in vivo; po, 60 mg·kg^−1", "value": "86.9 ± 41", "unit": "ng/mL"}, {"measurement": "concentration at 6 h", "setting": "in vivo; po, 60 mg·kg^−1", "value": "107 ± 42.1", "unit": "ng/mL"}, {"measurement": "concentration at 8 h", "setting": "in vivo; po, 60 mg·kg^−1", "value": "75.7 ± 26.3", "unit": "ng/mL"}, {"measurement": "concentration at 12 h", "setting": "in vivo; po, 60 mg·kg^−1", "value": "53.9 ± 19.1", "unit": "ng/mL"}, {"measurement": "concentration at 24 h", "setting": "in vivo; po, 60 mg·kg^−1", "value": "19.2 ± 5.86", "unit": "ng/mL"}, {"measurement": "concentration at 48 h", "setting": "in vivo; po, 60 mg·kg^−1", "value": "18.9 ± 8.97", "unit": "ng/mL"}, {"measurement": "concentration at 72 h", "setting": "in vivo; po, 60 mg·kg^−1", "value": "9.45 ± 3.37", "unit": "ng/mL"}, {"measurement": "concentration at 96 h", "setting": "in vivo; po, 60 mg·kg^−1", "value": "6.79 ± 1.89", "unit": "ng/mL"}, {"measurement": "IC50 at 15 min", "setting": "CYP2C19; Sprague-Dawley, rat, pooled rat liver microsomes, pH 7.4, probe omeprazole (1.07 µM, in seven-probe cocktail), IC50 CYP2C19, single components, RLM 0.2 mg/mL, 15 min, triplicate, mean ± SD", "value": "16.8 ± 2.52", "unit": "µM"}, {"measurement": "Response (% control) CYP2C19", "setting": "CYP2C19; [3]", "value": 98.58, "unit": "% control"}, {"measurement": "IC50 at 15 min", "setting": "CYP2B6; Sprague-Dawley, rat, pooled rat liver microsomes, pH 7.4, probe bupropion (90 µM, in seven-probe cocktail), IC50 CYP2B6, single components, RLM 0.2 mg/mL, 15 min, triplicate, mean ± SD", "value": "121 ± 10.9", "unit": "µM"}, {"measurement": "Response (% control) CYP2B6", "setting": "CYP2B6; [3]", "value": 96.46, "unit": "% control"}, {"measurement": "IC50 at 15 min", "setting": "CYP2C9; Sprague-Dawley, rat, pooled rat liver microsomes, pH 7.4, probe tolbutamide (18 µM, in seven-probe cocktail), IC50 CYP2C9, single components, RLM 0.2 mg/mL, 15 min, triplicate, mean ± SD", "value": "17.6 ± 2.03", "unit": "µM"}, {"measurement": "Response (% control) CYP2C9", "setting": "CYP2C9; [3]", "value": 99.70, "unit": "% control"}, {"measurement": "Response (% control) CYP2D6", "setting": "CYP2D6; 15 min, pH 7.4", "value": 98.58, "unit": "% control"}, {"measurement": "IC50 at 15 min", "setting": "CYP2D6; microsomes, pH 7.4, IC50 CYP2D6", "value": "17.1 ± 1.29", "unit": "µM"}, {"measurement": "Response (% control) CYP3A4", "setting": "CYP3A4; 15 min", "value": 99.99, "unit": "% control"}, {"measurement": "IC50 at 15 min", "setting": "CYP3A4; microsomes", "value": "30 ± 2.47", "unit": "µM"}, {"measurement": "IC50", "setting": "CYP1A2; IC50 CYP1A2, single components, RLM 0.2 mg/mL, 15 min, triplicate, mean ± SD", "value": "5.84 ± 0.14", "unit": "µM"}, {"measurement": "Response (% control) CYP1A2", "setting": "CYP1A2; [3]", "value": 79.30, "unit": "% control"}, {"measurement": "IC50", "setting": "CYP2E1 [1]", "value": "28 ± 2.39", "unit": "µM"}, {"measurement": "Response (% control) CYP2E1", "setting": "CYP2E1 [2]", "value": 99.99, "unit": "% control"}]}]}
